Ki and IC50 data for 20 molecules are collected here from patent US9546152B2 (MERCK SHARP & DOHME CORP., priority 2012, dated 2017).

Test [1] addresses T1, human orexin-2 receptor (Homo sapiens (Human), UniProt O43614). The test can be described thus: radioligand binding assay, orexin-2 receptor. The settings on record: membranes prepared from CHO cells expressing the OX2 receptor; read-out: hOX2R BIND hKi.
Test [2] deals with T1, human orexin-2 receptor. The test can be described thus: FLIPR Ca2+ Flux Assay, orexin-2 receptor. In kind it is cell-based. The settings on record: CHO cells expressing the human orexin-2 receptor; agonist 70 pM Ala-6,12 human orexin-A; read-out: hOX2R FLIPR IC50. The essentials:
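Using CHO lines carrying either rat orexin-1 or human orexin-2 receptor, compounds were tested as antagonists of 70 pM Ala-6,12 orexin-A-evoked calcium rises. Fluo-4 signal was read on a FLIPR over 5 min after a 5 min compound preincubation.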
On the technique in general: Calcium flux is commonly read through the fluorescence of an indicator in the cells.

For the next test, the target named is rat orexin-1 receptor (Rattus norvegicus (Rat), UniProt P56718). The test can be described thus: FLIPR Ca2+ Flux Assay, orexin-1 receptor. In kind it is cell-based. As to conditions: CHO cells expressing the rat orexin-1 receptor; agonist 70 pM Ala-6,12 human orexin-A; read-out: hOX1R FLIPR IC50. Here is the method: In a typical experiment the OX1 and OX2 receptor antagonistic activity of the compounds of the present invention was determined in accordance with the following experimental method. For intracellular calcium measurements, Chinese hamster ovary (CHO) cells expressing the rat orexin-1 receptor or the human orexin-2 receptor, are grown in Iscove's modified DMEM containing 2 mM L-glutamine, […], 1% hypoxanthine-thymidine supplement, 100 U/ml penicillin, 100 μg/ml streptomycin and 10% heat-inactivated fetal calf serum (FCS). The cells are seeded at 20,000 cells/well into Becton-Dickinson black 384-well clear bottom sterile plates coated with poly-D-lysine. All reagents were from GIBCO-Invitrogen Corp. The seeded plates are incubated overnight at 37° C. and 5% CO2. Ala-6,12 human orexin-A as the agonist is prepared as a 1 mM stock solution in 1% bovine serum albumin (BSA) and diluted in assay buffer (HBSS containing 20 mM HEPES, 0.1% BSA and 2.5 mM probenecid, pH7.4) for use in the assay at a final concentration of 70 pM. Test compounds are prepared as 10 mM stock solution in DMSO, then diluted in 384-well plates, first in DMSO, then assay buffer. On the day of the assay, cells are washed 3 times with 100 μl assay buffer and then incubated for 60 min (37° C., 5% CO2) in 60 μl assay buffer containing 1 μM Fluo-4AM ester, 0.02% pluronic acid, and 1% BSA. The dye loading solution is then aspirated and cells are washed 3 times with 100 μl assay buffer. 30 μl of that same buffer is left in each well. Within the Fluorescent Imaging Plate Reader (FLIPR, Molecular Devices), test compounds are added to the plate in a volume of 25 μl, incubated for 5 min and finally 25 μl of agonist is added. Fluorescence is measured for each well at 1 second intervals for 5 minutes and the height of each fluorescence peak is compared to the height of the fluorescence peak induced by 70 pM Ala-6,12 orexin-A with buffer in place of antagonist. […] Alternatively, compound potency can be assessed by a radioligand binding assay (described in Bergman et. al. Bioorg. Med. Chem. Lett. 2008, 18, 1425-1430) in which the inhibition constant (Ki) is determined in membranes prepared from CHO cells expressing either the OX1 or OX2 receptor. The intrinsic orexin receptor antagonist activity of a compound which may be used in the present invention may be determined by these assays.
Sequence of rat orexin-1 receptor (P56718 whole entry): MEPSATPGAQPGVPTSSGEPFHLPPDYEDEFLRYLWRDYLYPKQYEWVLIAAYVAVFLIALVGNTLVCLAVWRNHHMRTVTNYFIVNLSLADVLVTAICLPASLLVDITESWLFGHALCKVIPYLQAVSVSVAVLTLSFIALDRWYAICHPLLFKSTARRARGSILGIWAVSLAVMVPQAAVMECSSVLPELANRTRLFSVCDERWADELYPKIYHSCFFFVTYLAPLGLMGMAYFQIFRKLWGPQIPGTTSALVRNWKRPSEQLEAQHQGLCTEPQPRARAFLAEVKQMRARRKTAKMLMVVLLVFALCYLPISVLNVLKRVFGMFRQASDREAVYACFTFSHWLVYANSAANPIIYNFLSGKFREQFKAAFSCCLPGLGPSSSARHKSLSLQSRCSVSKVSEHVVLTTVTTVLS

T1 sequence (O43614 whole entry): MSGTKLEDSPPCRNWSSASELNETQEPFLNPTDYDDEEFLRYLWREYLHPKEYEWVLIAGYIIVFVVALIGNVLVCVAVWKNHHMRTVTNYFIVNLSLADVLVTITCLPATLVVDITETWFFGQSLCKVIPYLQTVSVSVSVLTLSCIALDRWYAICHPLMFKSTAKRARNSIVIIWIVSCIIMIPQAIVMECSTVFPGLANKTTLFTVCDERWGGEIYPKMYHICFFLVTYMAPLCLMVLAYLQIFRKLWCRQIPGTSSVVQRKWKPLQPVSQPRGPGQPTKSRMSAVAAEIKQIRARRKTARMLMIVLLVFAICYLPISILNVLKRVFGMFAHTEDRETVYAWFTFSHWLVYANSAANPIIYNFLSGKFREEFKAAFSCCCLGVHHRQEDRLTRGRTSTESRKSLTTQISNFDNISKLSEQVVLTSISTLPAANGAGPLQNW

`Cc1c(C#N)ccnc1O[C@@H]1CC[C@@H](C)N(C(=O)c2cc(C#N)ccc2-n2nccn2)C1` [Example 71, 2-{[(3R,6R)-1-{[5-cyano-2-(2H-1,2,3-triazol-2-yl)phenyl]carbonyl}-6-methylpiperidin-3-yl]oxy}-3-methylpyridine-4-carbonitrile]: the Ki on human orexin-2 receptor [1] came to 5.5 nM. Besides, the 50% inhibitory concentration (IC50) – broadly, the point on the concentration scale where inhibition reaches its midpoint – on human orexin-2 receptor [2] was 40 nM; on rat orexin-1 receptor it was 1850 nM.

Consider `Cc1c(C#N)ccnc1O[C@@H]1CC[C@@H](C)N(C(=O)c2cc(F)ccc2-c2cscn2)C1` [Example 26, 2-{[(3R,6R)-1-{[5-fluoro-2-(1,3-thiazol-4-yl)phenyl]carbonyl}-6-methylpiperidin-3-yl]oxy}-3-methylpyridine-4-carbonitrile], for which the Ki at human orexin-2 receptor [1] stood at 0.6 nM. Moreover, the values for the concentration for half-maximal inhibition (IC50) at human orexin-2 receptor [2] and on rat orexin-1 receptor were 10 nM and 967 nM, respectively.

`Cc1c(C#N)ccnc1O[C@@H]1CC[C@@H](C)N(C(=O)c2c(F)cccc2-c2cscn2)C1` [Example 22, 2-{[(3R,6R)-1-{[2-fluoro-6-(1,3-thiazol-4-yl)phenyl]carbonyl}-6-methylpiperidin-3-yl]oxy}-3-methylpyridine-4-carbonitrile]: the Ki on human orexin-2 receptor [1] was determined as 0.3 nM. The IC50 stood at 20 nM at human orexin-2 receptor [2] and 991 nM at rat orexin-1 receptor.

On to `Cc1c(C#N)ccnc1O[C@@H]1CC[C@@H](C)N(C(=O)c2ccccc2-n2ncnn2)C1` [Example 70, 3-methyl-2-{[(3R,6R)-6-methyl-1-{[2-(2H-tetrazol-2-yl)phenyl]carbonyl}piperidin-3-yl]oxy}pyridine-4-carbonitrile], for which, on human orexin-2 receptor [1], the Ki came out at 1.6 nM. The values for the IC50 at human orexin-2 receptor [2] and on rat orexin-1 receptor were 7.7 nM and 4590 nM, respectively.

In the case of `Cc1ccc(C(=O)N2C[C@H](Oc3nccc(C#N)c3C)CC[C@H]2C)c(C2CC2)c1` [Example 51, 2-({(3R,6R)-1-[(2-cyclopropyl-4-methylphenyl)carbonyl]-6-methylpiperidin-3-yl}oxy)-3-methylpyridine-4-carbonitrile], the Ki on human orexin-2 receptor [1] came out at 0.6 nM. In addition, the IC50 at human orexin-2 receptor [2] was determined as 21 nM; on rat orexin-1 receptor, 2100 nM.

With `COc1c(C#N)ccnc1O[C@@H]1CC[C@@H](C)N(C(=O)c2ccccc2C2CCC2)C1` [Example 105, 2-({(3R,6R)-1-[(2-cyclobutylphenyl)carbonyl]-6-methylpiperidin-3-yl}oxy)-3-methoxypyridine-4-carbonitrile], on human orexin-2 receptor [1], the Ki is 0.2 nM. Also, the figures for the IC50 on human orexin-2 receptor [2] and on rat orexin-1 receptor were 36 nM and 3500 nM, respectively.

For `Cc1c(C#N)ccnc1O[C@@H]1CC[C@@H](C)N(C(=O)c2c(F)cccc2-n2nccn2)C1` [Example 11, 2-{[(3R,6R)-1-{[2-fluoro-6-(2H-1,2,3-triazol-2-yl)phenyl]carbonyl}-6-methylpiperidin-3-yl]oxy}-3-methylpyridine-4-carbonitrile], on human orexin-2 receptor [1], the Ki was 0.3 nM. Moreover, the results for the IC50 on human orexin-2 receptor [2] and on rat orexin-1 receptor were 10 nM and 611 nM, respectively.

On to `Cc1c(C#N)ccnc1O[C@@H]1CC[C@@H](C)N(C(=O)c2sccc2-c2cscn2)C1` [Example 38, 3-methyl-2-{[(3R,6R)-6-methyl-1-{[3-(1,3-thiazol-4-yl)thiophen-2-yl]carbonyl}piperidin-3-yl]oxy}pyridine-4-carbonitrile], for which the Ki on human orexin-2 receptor [1] was 0.9 nM. For the same molecule, the IC50 was found to be 11 nM at human orexin-2 receptor [2] and 1640 nM at rat orexin-1 receptor.

With `CCc1ccccc1C(=O)N1C[C@H](Oc2nccc(C#N)c2C)CC[C@H]1C` [Example 59, 2-({(3R,6R)-1-[(2-ethylphenyl)carbonyl]-6-methylpiperidin-3-yl}oxy)-3-methylpyridine-4-carbonitrile], the Ki on human orexin-2 receptor [1] turned out to be 3.7 nM. The IC50 on human orexin-2 receptor [2] is 31 nM; on rat orexin-1 receptor, over 10000 nM.

In the case of `COc1ccc(C(=O)N2C[C@H](Oc3nccc(C#N)c3C)CC[C@H]2C)c(-c2ccccc2)n1` [Example 78, 2-({(3R,6R)-1-[(6-methoxy-2-phenylpyridin-3-yl)carbonyl]-6-methylpiperidin-3-yl}oxy)-3-methylpyridine-4-carbonitrile], the Ki at human orexin-2 receptor [1] was determined as 1.2 nM. Moreover, the IC50 at human orexin-2 receptor [2] amounted to 92 nM; on rat orexin-1 receptor, 1260 nM.

Consider `Cc1c(C#N)ccnc1O[C@@H]1CC[C@@H](C)N(C(=O)c2cc(F)ccc2-c2ccccn2)C1` [Example 56], for which the Ki on human orexin-2 receptor [1] was 1.4 nM. Moreover, the IC50 on human orexin-2 receptor [2] came out at 30 nM; at rat orexin-1 receptor, 2120 nM.

Regarding `COc1c(C#N)ccnc1O[C@@H]1CC[C@@H](C)N(C(=O)c2cc(F)ccc2-n2nccn2)C1` [Example 99, 2-{[(3R,6R)-1-{[5-fluoro-2-(2H-1,2,3-triazol-2-yl)phenyl]carbonyl}-6-methylpiperidin-3-yl]oxy}-3-methoxypyridine-4-carbonitrile], the Ki on human orexin-2 receptor [1] was determined as 0.4 nM. Moreover, the values for the concentration for half-maximal inhibition (IC50) at human orexin-2 receptor [2] and on rat orexin-1 receptor were 15 nM and 2430 nM, respectively.

For the molecule `Cc1c(C#N)ccnc1O[C@@H]1CC[C@@H](C)N(C(=O)c2sccc2-c2nccs2)C1` [Example 37, 3-methyl-2-{[(3R,6R)-6-methyl-1-{[3-(1,3-thiazol-2-yl)thiophen-2-yl]carbonyl}piperidin-3-yl]oxy}pyridine-4-carbonitrile], the Ki at human orexin-2 receptor [1] was found to be 1.2 nM. Further, the results for the IC50 on human orexin-2 receptor [2] and at rat orexin-1 receptor were 11 nM and 2270 nM, respectively.

On to `COc1c(C#N)ccnc1O[C@@H]1CC[C@@H](C)N(C(=O)c2ccccc2-n2nccn2)C1` [Example 96, 3-Methoxy-2-{[(3R,6R)-6-methyl-1-{[2-(2H-1,2,3-triazol-2-yl)phenyl]carbonyl}piperidin-3-yl]oxy}pyridine-4-carbonitrile], for which the Ki on human orexin-2 receptor [1] was 0.3 nM. The IC50 was 9 nM at human orexin-2 receptor [2] and 1260 nM at rat orexin-1 receptor.

For `Cc1c(C#N)ccnc1O[C@@H]1CC[C@@H](C)N(C(=O)c2cc(Cl)ccc2-n2nccn2)C1` [Example 3, 2-{[(3R,6R)-1-{[5-chloro-2-(2H-1,2,3-triazol-2-yl)phenyl]carbonyl}-6-methylpiperidin-3-yl]oxy}-3-methylpyridine-4-carbonitrile], the Ki at human orexin-2 receptor [1] was 11.7 nM. The IC50 came out at 128 nM on human orexin-2 receptor [2] and 4730 nM at rat orexin-1 receptor.

In the case of `Cc1nc(-c2ccccc2C(=O)N2C[C@H](Oc3nccc(C#N)c3C)CC[C@H]2C)no1` [Example 42, 3-methyl-2-{[(3R,6R)-6-methyl-1-{[2-(5-methyl-1,2,4-oxadiazol-3-yl)phenyl]carbonyl}piperidin-3-yl]oxy}pyridine-4-carbonitrile], the Ki at human orexin-2 receptor [1] was found to be 1 nM. Also, the IC50 was 12 nM on human orexin-2 receptor [2] and 776 nM on rat orexin-1 receptor.

On to `COc1c(C#N)ccnc1O[C@@H]1CC[C@@H](C)N(C(=O)c2cc(C)ccc2-n2nccn2)C1` [Example 103, 3-methoxy-2-{[(3R,6R)-6-methyl-1-{[5-methyl-2-(2H-1,2,3-triazol-2-yl)phenyl]carbonyl}piperidin-3-yl]oxy}pyridine-4-carbonitrile], for which, at human orexin-2 receptor [1], the Ki was 0.4 nM. The IC50 at human orexin-2 receptor [2] was found to be 24 nM; at rat orexin-1 receptor, 1010 nM.

On to `C[C@@H]1CC[C@@H](Oc2nccc(C#N)c2C#N)CN1C(=O)c1ccccc1-n1nccn1` [Example 94, 2-{[(3R,6R)-6-methyl-1-{[2-(2H-1,2,3-triazol-2-yl)phenyl]carbonyl}piperidin-3-yl]oxy}pyridine-3,4-dicarbonitrile], for which the Ki at human orexin-2 receptor [1] amounted to 4.4 nM. The 50% inhibitory concentration (IC50) is 40 nM on human orexin-2 receptor [2] and over 10000 nM on rat orexin-1 receptor.

Regarding `Cc1nc(C(=O)N2C[C@H](Oc3nccc(C#N)c3C)CC[C@H]2C)c(-c2ccccc2)s1` [Example 57, 3-methyl-2-({(3R,6R)-6-methyl-1-[(2-methyl-5-phenyl-1,3-thiazol-4-yl)carbonyl]piperidin-3-yl}oxy)pyridine-4-carbonitrile], the Ki on human orexin-2 receptor [1] amounted to 1.4 nM. Moreover, the concentration for half-maximal inhibition (IC50) at human orexin-2 receptor [2] was 23 nM; at rat orexin-1 receptor it was 521 nM.

As to `Cc1nnn(-c2ccccc2C(=O)N2C[C@H](Oc3nccc(C#N)c3C)CC[C@H]2C)n1` [Example 40, 3-methyl-2-{[(3R,6R)-6-methyl-1-{[2-(5-methyl-2H-tetrazol-2-yl)phenyl]carbonyl}piperidin-3-yl]oxy}pyridine-4-carbonitrile], at human orexin-2 receptor [1], the Ki amounted to 0.6 nM. The IC50 on human orexin-2 receptor [2] is 11 nM; on rat orexin-1 receptor it was 707 nM.
